Key:
[1] = system: Chinese hamster V79-379 lung fibroblasts; assay: Growth delay of V79 cultures after phthalocyanine and red light; assay type: cell-based; conditions: V79 cells, 1.0 μM, 18 hours, 12 kJ/m^2 red light
Experimental: At the time of light exposure, there were approximately 1.5×10^5 cells per 25 cm^2 flask. Following irradiation, the HBSS was replaced by 10 mL of fresh complete growth medium, and the cultures were returned to the 37° C. incubator. At various times before and after irradiation, duplicate cultures were trypsinized and counted. Controls included untreated cells and cells treated with light alone or drug alone. In addition, in each experiment, the drug to be tested was compared to a standard treatment, i.e. 1 μM AlPcCl for 18 hours followed by 12 kJ/m^2 light.
The inhibition of V79 culture growth was measured during a three day period following red light irradiation (12 kJ/m^2) of phthalocyanine-pretreated cells. With each of the active compounds, as well as with AlPcCl, there was an initial decrease in cell density, as dead cells became detached from the monolayer. Thereafter, the cell number per flask increased, as living cells grew and divided. The time for the cell density to recover to the level at the time of light exposure was considered the growth delay. […] The ratio of the growth delay for the test photosensitizer and the growth delay for AlPcCl measured in the same experiment is recorded in Table 1. There was less inhibition of culture growth when cells were exposed to compounds III, V, or VI as expected from the poor cellular uptake of these drugs.

[2] = system: Chinese hamster V79-379 lung fibroblasts; assay: Uptake of phthalocyanines into V79 cells; conditions: V79 cells, 1.0 μM, 18 hours
Outline: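 V79-379 cells were incubated with phthalocyanine for 18 h, typically at 1, 2 and/or 4 μM. Cells collected on filters were extracted into ethanol and absorbance read at the peak, usually 668 nm. Values are nmol per 10^6 cells, using ε 2.93×10^5.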

[3] = Photolysis of solutions by white light; assay type: physicochemical
[4] = system: Chinese hamster V79-379 lung fibroblasts; assay: Clonogenic cell survival of V79 cells after photodynamic treatment; assay type: cell-based; conditions: for CF10(AIPcCI)/CF10 (Pc) / F10(AIPcCI)/F10 (Pc): 1.0 μM; for CF10(AIPcCI)/CF10 (Pc): CF10 = product of intracellular concentration and fluence reducing survival to 10%; for F10(AIPcCI)/F10 (Pc): F10 = fluence reducing cell survival to 10%
Outline: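 V79 cells exposed to 0.5 or 1.0 μM phthalocyanine, then irradiated about 18 h later with increasing fluences of broad-band red light (600 nm high-pass filter). Survival scored as colonies of ≥50 cells. F10 taken from survival curves; CF10 from survival against intracellular concentration × fluence; 1 μM AlPcCl run as reference.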

[5] = system: L5178Y cells; assay: Induction of apoptosis (DNA ladder) in L5178Y cells after PDT; assay type: cell-based, Mouse; conditions: for induction of apoptosis: 1 μM at a fluence of 30 kJ/m^2; for Fluence, Minimum Demonstrated Condition to Induce Apoptosis / C × F Ld90, Minimum Demonstrated Condition to Induce Apoptosis: 0.5 μM; for Fluence, Minimum Demonstrated Condition to Induce Apoptosis: suspended in DMF-Tween 80; for C × F Ld90, Minimum Demonstrated Condition to Induce Apoptosis: suspended in DMF-Tween 80, product of concentration and fluence
[6] = system: RIF-1 (radiation-induced fibrosarcoma) tumors; assay: PDT of RIF-1 implanted tumors; assay type: in vivo, C3H/HeN mice; parameters: key to Tumor Responses at 24 hours: complete: no evidence of any tumor mass in any animal; only the scar from the photodynamic therapy was evident.; near complete: evidence of any tumor mass in four or five animals; only some tumor mass in one or two animals.; substantial: a significant tumor shrinkage occurred in all animals. In some animals the tumor response was complete, yet in others the response was not complete.; moderate: some tumor shrinkage was evident in some animals. In animals with some tumor shrinkage, scar formation was evident.; slight: some tumor decrease occurred in one or two mice; conditions: 1 mg/kg in corn oil, 675 nm
Experimental: The relative effectiveness at reducing tumor volume of selected phthalocyanine compounds at a given dosage was compared in vivo. RIF-1, i.e., radiation-induced fibrosarcoma, tumors were implanted into the backs of C3H/HeN mice. One tumor was implanted per mouse. Each of the phthalocyanine compounds listed in Table 7 was sonicated and vortexed in corn oil to produce a suspension. When the tumors reached […] in diameter and 2-3 mm in thickness, each mouse received 1 mg/kg in 0.1 mL of the corn oil, of the phthalocyanine suspension. For comparison, select mice received a conventional photosensitizer; either 5 mg/kg of chloroaluminum phthalocyanine tetrasulfonate, herein also referred to as “AlPcTS” in phosphate buffered saline or 5 mg/kg of Photofrin®-II in 5% dextrose. Twenty-four hours after the photosensitizers were administered, the tumors were irradiated with visible radiation delivered by an argon-pumped dye laser. The mice that received a phthalocyanine photosensitizer received light having a wavelength of 675 nm and the mice that received the Photofrin® II photosensitizer received light having a wavelength of 630 nm. Each tumor received 135 J/cm^2 of radiation. Tumor size was measured every day using calipers. The initial tumor volume was 50±10 mm^3. Tumor volume was calculated according to the hemiellipsoid model by the formula: V=½(4π)/3×(½×(w/2))×h
• complete—no evidence of any tumor mass in any animal; only the scar from the photodynamic therapy was evident. • near complete—evidence of […] in four or five animals; only some tumor mass in one or two animals. • substantial—a significant tumor shrinkage occurred in all animals. In some animals the tumor response was complete, yet in others the response was not complete. • moderate—some tumor shrinkage was evident in some animals. In animals with some tumor shrinkage, scar formation was evident. • slight—some tumor decrease occurred in one or two mice.

[7] = Solubility; assay type: physicochemical
[8] = system: human skin keratome biopsies; assay: Penetration of topically applied PcIV and salts into human skin, confocal fluorescence microscopy; assay type: in vitro ADME; conditions: compared to PcIV
Experimental: Human skin absorption of PcIV was analyzed by fluorescence confocal microscopy. PcIV fluorescence, upon activation with a HeNe laser at 633 nm, was visualized using a 650 long pass filter. Briefly, 0.4 mm thick human keratomes were removed from the gluteal region of healthy volunteers and divided into 1.5 cm×1.5 cm squares of skin. Upon application of PcIV to the epidermis in a vehicle of ethanol and propylene glycol, visualization of penetration of PcIV was achieved by fluorescence. Pc 4 was then prepared as PcIV-pyruvate and PcIV-HCl and applied in the same vehicle as Pc 4 to the epidermis. Three concentrations, namely, 0.1 mg/mL, 0.05 mg/mL, and 0.01 mg/mL were tested per PcIV formulation. Skin was incubated at 37° C. for 1, 2, and 4 hours, along with vehicle controls. […] Maximum PcIV fluorescence was detectable using laser transmission of 3% for the 0.1 mg/mL and 30% for the 0.01 mg/mL. Both PcIV.pyruvate and PcIV.HCl however could be visualized with a laser transmission of 2-3% for the 0.1 mg/mL and 7-9% for the 0.01 mg/mL concentrations.
The ability of PcIV and the newly prepared PcIV salts (HCl and pyruvate) to penetrate into the epidermis of keratome derived biopsies was examined. The time course of penetrance as well as the effect of dose of the PcIV compounds were evaluated. PcIV and the PcIV.HCl and PcIV.pyruvate salts were resuspended in ethanol (100%, 1 part PcIV, 499 parts ethanol) and then diluted to final concentrations in a 30% Propylene Glycol 70% Ethanol mixture.
Keratome biopsies of normal skin were obtained from normal volunteers after written consent according to UHHS IRB protocol # 05-95-03. To date, seven experiments have been performed. The range of age for volunteers was 20-40 yrs. Individuals represented Fitzpatrick skin types between I-III. Skin biopsies were held in PBS following the keratome procedure until processed for PcIV Application (less than 1 hr). The keratome skin samples (1.5 cm^2) were overlayed onto sterile gauze in 80 mm tissue culture petri dishes epidermal side down. PcIV compounds were then applied to the corners of the sterile gauze and allowed to “wick” through the gauze and contact the epidermis of the skin for the indicated times. Following the incubation, the tissue was removed from the gauze and washed three times in phosphate buffered saline and held, in PBS, until analysis by confocal microscopy. Confocal images were acquired using a 20×N.A. 0.5 water immersion objective on a Zeiss 510 confocal microscope. PcIV fluorescence was elicited using a 633 nm wavelength for excitation, and collected with a 633 nm dichroic mirror and 650 nm long-pass filter.

[9] = system: human breast cancer MCF-7c3 cells; assay: Uptake of PcIV salts into MCF-7c3 cells by flow cytometry; conditions: 50, 100 or 200 nM, 60 minutes, mean channel fluorescence normalized to PcIV
Experimental: Cells were grown in 5 mL of RPMI-1640 medium supplemented with 10% fetal calf serum in 60-mm diameter Petri dishes in a 37° C. incubator in an atmosphere of 5% CO2, 95% air. Cultures were used when they were in exponential growth. For experiments, various concentrations (50, 100, or 200 nM) of each compound (PcIV, PcIV-HCl, PcIV-pyruvate), were added to the medium above the cells, and the dishes were returned to the incubator for 60 minutes to allow the photosensitizers to enter the cells. To evaluate uptake, the medium was removed, and the cells were detached from the plastic surface with trypsin and collected by centrifugation. The cell pellet was suspended in phenol-red-free Hank's balanced salt solution and analyzed by flow cytometry (λex=335-355 nm; emission collected through a 650-nm long-pass filter). For each cell sample, the data were expressed as the mean channel fluorescence and background was subtracted. Data for each concentration of the PcIV salts were then normalized to those for the same concentration of PcIV in the same experiment. […] Error bars represent the standard deviation of the mean.

Compound: CN(C)CCC[Si](C)(C)O[Si]1(C)n2c3c4ccccc4c2N=C2N=C(N=c4c5ccccc5c(n41)=NC1=NC(=N3)c3ccccc31)c1ccccc12 (centres unmarked) [Compound III, CH3SiPcOSi(CH3)2(CH2)3N(CH3)2]
- Growth Delay (12 kj/m^2), Efficiency Relative to 1 μM (AlPcCl) [1]: 0.05
- Uptake, Efficiency Relative to 1 μM (AlPcCl) [2]: 0.07
- photolysis of solutions [3]: rapidly photolyzed by white light

Compound: C[N+](C)(C)CCC[Si](C)(C)O[Si]1(O)n2c3c4ccccc4c2N=C2N=C(N=c4c5ccccc5c(n41)=NC1=NC(=N3)c3ccccc31)c1ccccc12.[I-] (centres unmarked) [Compound V, HOSiPcOSi(CH3)2(CH2)3N(CH3)3^+I^−]
- CF10(AIPcCI)/CF10 (Pc) [4]: 3.0
- F10(AIPcCI)/F10 (Pc) [4]: 0.59
- Growth Delay (12 kj/m^2), Efficiency Relative to 1 μM (AlPcCl) [1]: 0
- Uptake, Efficiency Relative to 1 μM (AlPcCl) [2]: 0.3
- induction of apoptosis [5]: did not induce apoptosis
- Tumor Responses at 24 hours ([6]; 135 J/cm^2, light 24 h after dosing): moderate
- Doubling Time of Initial Tumor Volume after PDT ([6]; 135 J/cm^2, controls 4 days): 6 days
- solubility in H2O [7]: insoluble

Compound: C[N+](C)(C)CCC[Si](C)(C)O[Si]1(O[Si](C)(C)CCC[N+](C)(C)C)n2c3c4ccccc4c2N=C2N=C(N=c4c5ccccc5c(n41)=NC1=NC(=N3)c3ccccc31)c1ccccc12.[I-].[I-] [Compound VI, SiPc[OSi(CH3)2(CH2)3N(CH3)3)^+I^−]2]
- Growth Delay (12 kj/m^2), Efficiency Relative to 1 μM (AlPcCl) [1]: 0.5
- Uptake, Efficiency Relative to 1 μM (AlPcCl) [2]: 0.1
- induction of apoptosis [5]: did not induce apoptosis
- solubility in H2O [7]: disperses in H2O but doses not dissolve in it

Compound: CN1CCN(CCC[Si](C)(C)O[Si]2(O[Si](C)(C)CCCN3CCN(C)CC3)n3c4c5ccccc5c3N=C3N=C(N=c5c6ccccc6c(n52)=NC2=NC(=N4)c4ccccc42)c2ccccc23)CC1 [Compound XXX, SiPc[OSi(CH3)2(CH2)3NC4H8NCH3]2]
- Maximum Effect (% survival at kj/m^2) ([4]; concentration not given, at 10 kj/m^2): 30% at 10
- Fluence, Minimum Demonstrated Condition to Induce Apoptosis [5]: 15.0 kJ/m^2
- C × F Ld90, Minimum Demonstrated Condition to Induce Apoptosis [5]: 7.5 kJ/m^2
- solubility in DMF [7]: not soluble in DMF

Compound: C[Si](C)(CCCN1CCNCC1)O[Si]1(O[Si](C)(C)CCCN2CCNCC2)n2c3c4ccccc4c2N=C2N=C(N=c4c5ccccc5c(n41)=NC1=NC(=N3)c3ccccc31)c1ccccc12 [Compound XXXII, SiPc[OSi(CH3)2(CH2)3NC4H8NH]2]
- Fluence, Minimum Demonstrated Condition to Induce Apoptosis [5]: 5 kJ/m^2
- C × F Ld90, Minimum Demonstrated Condition to Induce Apoptosis [5]: 2.5 kJ/m^2
- solubility in DMF [7]: not soluble in DMF

Compound: CC(=O)C(=O)O.CN(C)CCC[Si](C)(C)O[Si]1(O)n2c3c4ccccc4c2N=C2N=C(N=c4c5ccccc5c(n41)=NC1=NC(=N3)c3ccccc31)c1ccccc12 (centres unmarked) [PcIV-pyruvate, HOSiPcOSi(CH3)2(CH2)3N(CH3)2(CH3C(O)COOH)]
- effect of salt formulation on penetration through the skin [8]: does not hinder the penetration
- efficiency in entering MCF-7c3 cells compared to PcIV [9]: at least as efficient, and possibly more efficient

Compound: AlPcOSi(CH3)2(CH2)3N(CH3)3^+I^− [Compound II]
- CF10(AIPcCI)/CF10 (Pc) [4]: 0.72
- F10(AIPcCI)/F10 (Pc) [4]: 0.99
- Growth Delay (12 kj/m^2), Efficiency Relative to 1 μM (AlPcCl) [1]: 3.4
- Uptake, Efficiency Relative to 1 μM (AlPcCl) [2]: 1.8
- solubility in H2O [7]: insoluble
